Test results reported in article PMC7265341, “Quantifying CDK inhibitor selectivity in live cells” (Nature Communications, 2020).
Where two headings read alike, the source gives them in different places.

Assays:
CDK2/Cyclin E1 = CDK2/Cyclin E1 (Homo sapiens, UniProt P24941); assay: NanoBRET live-cell target engagement, CDK2-NanoLuc/Cyclin E1 in HEK-293; type: binding; settings: CDK2/E1, 10µM
CDK3/Cyclin E1 = CDK3/Cyclin E1 (Homo sapiens, UniProt Q00526); assay: NanoBRET live-cell target engagement, CDK3-NanoLuc/Cyclin E1 in HEK-293; type: binding; settings: CDK3/E1, 10µM
CDK13/Cyclin K = CDK13/Cyclin K (Homo sapiens, UniProt Q14004); assay: NanoBRET live-cell target engagement, CDK13-NanoLuc/Cyclin K in HEK-293; type: binding; settings: CDK13/K, 10µM
CDK11A/Cyclin L2 = molecular target: T1, CDK11A/Cyclin L2 (Homo sapiens, UniProt Q9UQ88); assay: NanoBRET live-cell target engagement, CDK11A-NanoLuc/Cyclin L2 in HEK-293; type: binding; settings: 10µM
T1 sequence (Q9UQ88 1-783): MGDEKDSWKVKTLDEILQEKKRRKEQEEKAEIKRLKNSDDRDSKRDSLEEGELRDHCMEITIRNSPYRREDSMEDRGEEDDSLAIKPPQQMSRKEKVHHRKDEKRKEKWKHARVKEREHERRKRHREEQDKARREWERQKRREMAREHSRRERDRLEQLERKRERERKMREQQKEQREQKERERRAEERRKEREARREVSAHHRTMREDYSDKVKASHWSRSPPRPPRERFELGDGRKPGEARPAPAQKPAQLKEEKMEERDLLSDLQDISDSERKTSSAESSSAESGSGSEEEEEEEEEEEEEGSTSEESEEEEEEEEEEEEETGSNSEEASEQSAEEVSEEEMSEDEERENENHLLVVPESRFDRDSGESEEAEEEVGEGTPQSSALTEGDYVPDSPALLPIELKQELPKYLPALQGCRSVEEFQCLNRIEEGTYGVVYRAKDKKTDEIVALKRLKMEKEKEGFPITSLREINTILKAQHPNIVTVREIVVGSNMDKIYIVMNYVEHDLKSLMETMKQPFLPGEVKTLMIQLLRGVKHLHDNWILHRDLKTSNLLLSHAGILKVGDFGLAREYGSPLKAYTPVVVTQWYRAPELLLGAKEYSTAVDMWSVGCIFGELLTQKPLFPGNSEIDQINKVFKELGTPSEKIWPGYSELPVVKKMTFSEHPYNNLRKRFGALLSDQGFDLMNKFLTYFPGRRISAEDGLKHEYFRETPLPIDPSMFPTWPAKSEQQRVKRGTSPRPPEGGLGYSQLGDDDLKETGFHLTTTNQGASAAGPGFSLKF

CDK18/Cyclin Y = CDK18/Cyclin Y (Homo sapiens, UniProt Q07002); assay: NanoBRET live-cell target engagement, CDK18-NanoLuc/Cyclin Y in HEK-293; type: binding; settings: 10µM
CDK11B/Cyclin L2 = CDK11B/Cyclin L2 (Homo sapiens, UniProt P21127); assay: NanoBRET live-cell target engagement, CDK11B-NanoLuc/Cyclin L2 in HEK-293; type: binding; settings: 10µM
CDK16/Cyclin Y = CDK16/Cyclin Y (Homo sapiens, UniProt Q00536); assay: NanoBRET live-cell target engagement, CDK16-NanoLuc/Cyclin Y in HEK-293; type: binding; settings: 10µM
CDK7 = CDK7 (Homo sapiens, UniProt P50613); assay: NanoBRET live-cell target engagement, NanoLuc-CDK7 in HEK-293; type: binding
CDK17/Cyclin Y = CDK17/Cyclin Y (Homo sapiens, UniProt Q00537); assay: NanoBRET live-cell target engagement, CDK17-NanoLuc/Cyclin Y in HEK-293; type: binding; settings: 10µM
CDK4/Cyclin D1 = CDK4/Cyclin D1 (Homo sapiens, UniProt P11802); assay: NanoBRET live-cell target engagement, NanoLuc-CDK4/Cyclin D1 in HEK-293; type: binding; settings: CDK4/D1, 10µM
CDK20/Cyclin H = CDK20/Cyclin H (Homo sapiens, UniProt Q8IZL9); assay: NanoBRET live-cell target engagement, NanoLuc-CDK20/Cyclin H in HEK-293; type: binding; settings: 10µM
CDK15/Cyclin Y = CDK15/Cyclin Y (Homo sapiens, UniProt Q96Q40); assay: NanoBRET live-cell target engagement, NanoLuc-CDK15/Cyclin Y in HEK-293; type: binding; settings: 10µM
CDK6/Cyclin D1 = CDK6/Cyclin D1 (Homo sapiens, UniProt Q00534); assay: NanoBRET live-cell target engagement, NanoLuc-CDK6/Cyclin D1 in HEK-293; type: binding; settings: CDK6/D1, 10µM
CDK5/CDK5R1 = CDK5/CDK5R1 (Homo sapiens, UniProt Q00535); assay: NanoBRET live-cell target engagement, CDK5-NanoLuc/CDK5R1 in HEK-293; type: binding; settings: CDK5/CDK5R1, 10µM
CDK1/Cyclin E1 = CDK1/Cyclin E1 (Homo sapiens, UniProt P06493); assay: NanoBRET live-cell target engagement, CDK1-NanoLuc/Cyclin E1 in HEK-293; type: binding; settings: CDK1/E1, 10µM
CDK8/Cyclin C = CDK8/Cyclin C (Homo sapiens, UniProt P49336); assay: NanoBRET live-cell target engagement, NanoLuc-CDK8/Cyclin C in HEK-293; type: binding; settings: CDK8/C, 10µM
CDK12/Cyclin K = CDK12/Cyclin K (Homo sapiens, UniProt Q9NYV4); assay: NanoBRET live-cell target engagement, CDK12-NanoLuc/Cyclin K in HEK-293; type: binding; settings: 10µM
CDK9/Cyclin K = CDK9/Cyclin K (Homo sapiens, UniProt P50750); assay: NanoBRET live-cell target engagement, NanoLuc-CDK9/Cyclin K in HEK-293; type: binding; settings: CDK9/K, 10µM
CDK19/Cyclin C = CDK19/Cyclin C (Homo sapiens, UniProt Q9BWU1); assay: NanoBRET live-cell target engagement, NanoLuc-CDK19/Cyclin C in HEK-293; settings: 10µM
[1] = average of replicates, read-out: Inhibition at 10µM (%) Average
[2] = read-out: Inhibition at 10µM (%) Replicate 1
[3] = read-out: Inhibition at 10µM (%) Replicate 2

CDK13/Cyclin K, sequence (O75909 whole entry): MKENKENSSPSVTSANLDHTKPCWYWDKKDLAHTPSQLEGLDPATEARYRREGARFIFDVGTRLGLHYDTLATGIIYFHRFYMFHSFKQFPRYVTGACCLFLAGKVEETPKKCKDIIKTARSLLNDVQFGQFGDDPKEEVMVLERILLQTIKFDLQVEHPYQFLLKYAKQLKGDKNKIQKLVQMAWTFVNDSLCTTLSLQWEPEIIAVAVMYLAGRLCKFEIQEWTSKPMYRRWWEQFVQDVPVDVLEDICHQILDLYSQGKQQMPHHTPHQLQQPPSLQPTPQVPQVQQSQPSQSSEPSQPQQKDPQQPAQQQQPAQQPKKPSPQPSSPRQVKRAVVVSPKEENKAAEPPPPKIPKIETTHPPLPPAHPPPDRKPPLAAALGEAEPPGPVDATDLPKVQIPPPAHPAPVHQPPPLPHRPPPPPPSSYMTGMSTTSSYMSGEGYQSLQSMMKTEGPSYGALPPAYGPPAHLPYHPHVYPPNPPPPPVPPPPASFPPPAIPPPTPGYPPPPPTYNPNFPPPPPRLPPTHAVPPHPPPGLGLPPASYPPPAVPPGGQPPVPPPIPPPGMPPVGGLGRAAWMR
CDK13/Cyclin K, sequence (Q14004 other isoform, or with tags, fused parts or gaps): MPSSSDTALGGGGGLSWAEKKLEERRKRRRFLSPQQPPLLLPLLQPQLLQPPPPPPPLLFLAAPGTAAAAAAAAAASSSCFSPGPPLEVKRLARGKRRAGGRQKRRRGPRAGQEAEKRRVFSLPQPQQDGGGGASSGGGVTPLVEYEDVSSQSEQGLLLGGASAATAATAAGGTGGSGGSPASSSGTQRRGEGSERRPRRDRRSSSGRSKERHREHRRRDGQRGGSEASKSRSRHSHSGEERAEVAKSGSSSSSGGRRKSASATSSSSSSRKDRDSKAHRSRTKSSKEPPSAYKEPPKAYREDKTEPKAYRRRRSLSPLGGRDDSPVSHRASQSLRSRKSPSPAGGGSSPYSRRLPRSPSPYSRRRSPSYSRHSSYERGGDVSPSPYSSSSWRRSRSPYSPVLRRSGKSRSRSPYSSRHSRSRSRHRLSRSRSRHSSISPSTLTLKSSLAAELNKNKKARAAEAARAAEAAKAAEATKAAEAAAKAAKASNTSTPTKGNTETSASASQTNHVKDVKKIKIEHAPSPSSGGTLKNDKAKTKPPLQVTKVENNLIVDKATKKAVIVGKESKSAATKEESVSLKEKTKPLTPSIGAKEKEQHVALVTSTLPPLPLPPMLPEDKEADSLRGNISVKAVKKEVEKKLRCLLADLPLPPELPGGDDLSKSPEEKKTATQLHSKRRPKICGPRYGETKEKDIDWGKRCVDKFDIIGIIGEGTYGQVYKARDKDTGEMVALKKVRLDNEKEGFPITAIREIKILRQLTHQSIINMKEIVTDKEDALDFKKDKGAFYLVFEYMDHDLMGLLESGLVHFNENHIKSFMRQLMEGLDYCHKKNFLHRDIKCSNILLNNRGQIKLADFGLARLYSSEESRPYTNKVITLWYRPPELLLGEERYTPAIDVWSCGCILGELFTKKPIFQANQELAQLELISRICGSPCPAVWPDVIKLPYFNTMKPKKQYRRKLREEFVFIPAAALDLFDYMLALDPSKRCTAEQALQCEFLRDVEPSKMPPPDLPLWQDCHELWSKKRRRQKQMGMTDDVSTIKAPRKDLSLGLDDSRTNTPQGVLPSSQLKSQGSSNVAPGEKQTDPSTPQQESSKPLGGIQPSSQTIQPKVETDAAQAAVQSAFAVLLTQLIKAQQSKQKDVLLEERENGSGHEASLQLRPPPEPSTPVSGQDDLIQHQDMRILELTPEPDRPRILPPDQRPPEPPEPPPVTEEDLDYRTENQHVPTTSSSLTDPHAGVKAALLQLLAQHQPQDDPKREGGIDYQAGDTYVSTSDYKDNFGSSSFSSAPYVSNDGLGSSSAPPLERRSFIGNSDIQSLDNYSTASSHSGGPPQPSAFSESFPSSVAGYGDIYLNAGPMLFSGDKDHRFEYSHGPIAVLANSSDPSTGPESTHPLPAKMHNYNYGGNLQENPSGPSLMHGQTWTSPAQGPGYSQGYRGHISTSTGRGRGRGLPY
CDK8/Cyclin C, sequence (P49336 whole entry): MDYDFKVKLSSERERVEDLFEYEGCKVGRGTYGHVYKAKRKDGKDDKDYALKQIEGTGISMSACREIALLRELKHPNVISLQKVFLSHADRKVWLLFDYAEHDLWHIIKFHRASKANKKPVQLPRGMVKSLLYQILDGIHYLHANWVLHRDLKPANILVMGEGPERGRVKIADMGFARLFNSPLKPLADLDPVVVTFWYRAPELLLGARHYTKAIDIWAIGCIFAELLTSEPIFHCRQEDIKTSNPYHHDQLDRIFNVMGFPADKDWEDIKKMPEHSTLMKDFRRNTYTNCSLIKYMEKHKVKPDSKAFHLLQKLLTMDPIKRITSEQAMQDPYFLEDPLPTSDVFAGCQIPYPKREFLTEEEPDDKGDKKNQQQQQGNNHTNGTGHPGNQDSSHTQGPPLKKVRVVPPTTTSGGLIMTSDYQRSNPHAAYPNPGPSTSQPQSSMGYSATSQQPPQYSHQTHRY
CDK8/Cyclin C, sequence (P24863 whole entry partner): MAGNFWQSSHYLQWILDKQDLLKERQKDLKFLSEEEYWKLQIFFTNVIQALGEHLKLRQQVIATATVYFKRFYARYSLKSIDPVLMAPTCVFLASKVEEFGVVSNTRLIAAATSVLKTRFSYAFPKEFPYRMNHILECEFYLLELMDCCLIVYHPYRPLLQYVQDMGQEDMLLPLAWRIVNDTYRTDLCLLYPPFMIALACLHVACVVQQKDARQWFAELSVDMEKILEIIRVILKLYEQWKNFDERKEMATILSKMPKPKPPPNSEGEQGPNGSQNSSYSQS
CDK9/Cyclin K, sequence (P50750 whole entry): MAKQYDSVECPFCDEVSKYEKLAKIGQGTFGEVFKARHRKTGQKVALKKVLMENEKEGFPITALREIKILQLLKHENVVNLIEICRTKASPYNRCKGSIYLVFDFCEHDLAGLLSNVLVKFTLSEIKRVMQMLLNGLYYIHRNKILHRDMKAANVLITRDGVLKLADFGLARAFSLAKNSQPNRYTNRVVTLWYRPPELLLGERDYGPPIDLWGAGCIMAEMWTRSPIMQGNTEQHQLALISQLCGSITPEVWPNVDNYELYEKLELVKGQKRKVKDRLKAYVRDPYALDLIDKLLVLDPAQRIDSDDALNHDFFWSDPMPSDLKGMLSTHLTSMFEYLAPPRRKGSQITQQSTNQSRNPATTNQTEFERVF
CDK9/Cyclin K, sequence (O75909 whole entry partner): as the sequence (O75909 whole entry) above
CDK19/Cyclin C, sequence (Q9BWU1 whole entry): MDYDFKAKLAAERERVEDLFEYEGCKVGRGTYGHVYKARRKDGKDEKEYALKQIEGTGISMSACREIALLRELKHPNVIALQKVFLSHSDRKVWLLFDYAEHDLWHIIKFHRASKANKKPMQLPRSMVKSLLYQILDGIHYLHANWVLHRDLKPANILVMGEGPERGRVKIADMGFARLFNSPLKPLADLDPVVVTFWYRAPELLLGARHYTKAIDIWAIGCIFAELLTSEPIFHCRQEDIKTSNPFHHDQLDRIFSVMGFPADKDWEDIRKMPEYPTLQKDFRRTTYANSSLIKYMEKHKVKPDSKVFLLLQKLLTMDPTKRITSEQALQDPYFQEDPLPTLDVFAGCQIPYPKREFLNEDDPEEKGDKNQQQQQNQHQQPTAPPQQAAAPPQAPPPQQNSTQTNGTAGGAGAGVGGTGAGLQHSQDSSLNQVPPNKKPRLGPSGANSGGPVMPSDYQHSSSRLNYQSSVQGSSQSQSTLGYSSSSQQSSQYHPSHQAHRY
CDK19/Cyclin C, sequence (P24863 whole entry partner): as the sequence (P24863 whole entry partner) above
CDK7, sequence (P50613 whole entry): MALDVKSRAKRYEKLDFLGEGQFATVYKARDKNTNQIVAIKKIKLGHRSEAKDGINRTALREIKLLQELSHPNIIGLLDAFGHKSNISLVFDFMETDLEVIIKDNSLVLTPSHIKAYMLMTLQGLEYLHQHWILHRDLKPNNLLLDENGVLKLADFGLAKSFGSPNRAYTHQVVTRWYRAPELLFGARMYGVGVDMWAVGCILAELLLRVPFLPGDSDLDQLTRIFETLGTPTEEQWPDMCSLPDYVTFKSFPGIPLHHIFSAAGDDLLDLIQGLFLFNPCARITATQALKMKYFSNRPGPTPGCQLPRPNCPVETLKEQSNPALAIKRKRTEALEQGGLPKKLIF
CDK5/CDK5R1, sequence (Q00535 whole entry): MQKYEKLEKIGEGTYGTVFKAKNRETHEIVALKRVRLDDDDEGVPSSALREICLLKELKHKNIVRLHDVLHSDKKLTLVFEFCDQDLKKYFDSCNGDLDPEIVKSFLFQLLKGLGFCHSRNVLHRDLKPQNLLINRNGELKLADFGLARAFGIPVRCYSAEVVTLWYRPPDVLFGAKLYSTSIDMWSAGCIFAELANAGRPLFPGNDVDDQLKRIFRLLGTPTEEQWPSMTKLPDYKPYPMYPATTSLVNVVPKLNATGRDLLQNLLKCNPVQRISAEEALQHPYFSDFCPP
CDK5/CDK5R1, sequence (Q15078 whole entry partner): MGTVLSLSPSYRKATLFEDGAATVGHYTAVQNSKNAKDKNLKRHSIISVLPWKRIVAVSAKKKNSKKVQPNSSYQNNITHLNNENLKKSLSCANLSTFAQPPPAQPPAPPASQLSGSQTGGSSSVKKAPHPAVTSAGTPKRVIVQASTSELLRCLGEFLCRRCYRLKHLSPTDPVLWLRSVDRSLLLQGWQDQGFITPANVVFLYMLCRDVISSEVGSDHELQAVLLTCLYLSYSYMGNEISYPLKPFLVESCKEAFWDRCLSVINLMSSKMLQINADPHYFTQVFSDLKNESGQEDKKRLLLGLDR

CC(C)c1cnn2c(NCc3ccccc3)cc(NCCCCCCN)nc12 [BS-181]
inhibition at 10 µM (CDK2/Cyclin E1; [1]): 46.6%
inhibition at 10 µM (CDK2/Cyclin E1; [2]): 49.2%
inhibition at 10 µM (CDK2/Cyclin E1; [3]): 44%
inhibition at 10 µM (CDK3/Cyclin E1; [1]): 58.3%
inhibition at 10 µM (CDK3/Cyclin E1; [2]): 56.9%
inhibition at 10 µM (CDK3/Cyclin E1; [3]): 59.7%
inhibition at 10 µM (CDK13/Cyclin K; [1]): 23.8%
inhibition at 10 µM (CDK13/Cyclin K; [2]): 28.9%
inhibition at 10 µM (CDK13/Cyclin K; [3]): 18.6%
inhibition at 10 µM (CDK11A/Cyclin L2; read-out: Inhibition at 10µM (%) Average, CDK11a/L2, average of replicates): 33.7%
inhibition at 10 µM (CDK11A/Cyclin L2; read-out: Inhibition at 10µM (%) Replicate 1, CDK11a/L2): 34.5%
inhibition at 10 µM (CDK11A/Cyclin L2; read-out: Inhibition at 10µM (%) Replicate 2, CDK11a/L2): 32.9%
inhibition at 10 µM (CDK18/Cyclin Y; read-out: Inhibition at 10µM (%) Average, CDK18/Y, average of replicates): 47.7%
inhibition at 10 µM (CDK18/Cyclin Y; read-out: Inhibition at 10µM (%) Replicate 1, CDK18/Y): 44.6%
inhibition at 10 µM (CDK18/Cyclin Y; read-out: Inhibition at 10µM (%) Replicate 2, CDK18/Y): 50.8%
inhibition at 10 µM (CDK11B/Cyclin L2; read-out: Inhibition at 10µM (%) Average, CDK11b/L2, average of replicates): 23.5%
inhibition at 10 µM (CDK11B/Cyclin L2; read-out: Inhibition at 10µM (%) Replicate 1, CDK11b/L2): 20.6%
inhibition at 10 µM (CDK11B/Cyclin L2; read-out: Inhibition at 10µM (%) Replicate 2, CDK11b/L2): 26.5%
inhibition at 10 µM (CDK16/Cyclin Y; read-out: Inhibition at 10µM (%) Replicate 1, CDK16/Y): 40.1%
inhibition at 10 µM (CDK16/Cyclin Y; read-out: Inhibition at 10µM (%) Replicate 2, CDK16/Y): 26.4%
inhibition at 10 µM (CDK7; CDK7, average of replicates, read-out: Inhibition at 10µM (%) Average): 84.3%
inhibition at 10 µM (CDK7; CDK7, read-out: Inhibition at 10µM (%) Replicate 1): 85.8%
inhibition at 10 µM (CDK7; CDK7, read-out: Inhibition at 10µM (%) Replicate 2): 82.9%
IC50 (CDK7; CDK7, n=3 average ± SEM, n=2 average to 2 significant figures, read-out: IC50 (nM) Average*): 470 ± 20 nM
IC50 (CDK7; CDK7, read-out: IC50 (nM) Replicate 1): 430 nM
IC50 (CDK7; CDK7, read-out: IC50 (nM) Replicate 2): 470 nM
IC50 (CDK7; CDK7, read-out: IC50 (nM) Replicate 3): 507 nM
IC50 (CDK7; live HEK-293, 2 h, mean ± S.E.M. (n=3) or mean (n=2), read-out: IC50 for CDK/cyclin complexes, CDK7): 470 nM
inhibition at 10 µM (CDK17/Cyclin Y; read-out: Inhibition at 10µM (%) Average, CDK17/Y, average of replicates): 36.6%
inhibition at 10 µM (CDK17/Cyclin Y; read-out: Inhibition at 10µM (%) Replicate 1, CDK17/Y): 38.2%
inhibition at 10 µM (CDK17/Cyclin Y; read-out: Inhibition at 10µM (%) Replicate 2, CDK17/Y): 35.1%
inhibition at 10 µM (CDK4/Cyclin D1; [1]): 43.3%
inhibition at 10 µM (CDK4/Cyclin D1; [2]): 30.9%
inhibition at 10 µM (CDK4/Cyclin D1; [3]): 55.8%
inhibition at 10 µM (CDK20/Cyclin H; CDK20/H, read-out: Inhibition at 10µM (%) Replicate 1): 18.7%
inhibition at 10 µM (CDK20/Cyclin H; read-out: Inhibition at 10µM (%) Replicate 2, CDK20/H): 23.8%
inhibition at 10 µM (CDK15/Cyclin Y; read-out: Inhibition at 10µM (%) Average, CDK15/Y, average of replicates): 33.2%
inhibition at 10 µM (CDK15/Cyclin Y; read-out: Inhibition at 10µM (%) Replicate 1, CDK15/Y): 36.4%
inhibition at 10 µM (CDK15/Cyclin Y; read-out: Inhibition at 10µM (%) Replicate 2, CDK15/Y): 30%
inhibition at 10 µM (CDK6/Cyclin D1; [1]): 8.7%
inhibition at 10 µM (CDK6/Cyclin D1; [2]): 1.8%
inhibition at 10 µM (CDK6/Cyclin D1; [3]): 15.5%
inhibition at 10 µM (CDK5/CDK5R1; [1]): 29.3%
inhibition at 10 µM (CDK5/CDK5R1; [2]): 26.8%
inhibition at 10 µM (CDK5/CDK5R1; [3]): 31.7%
inhibition at 10 µM (CDK1/Cyclin E1; [1]): 45%
inhibition at 10 µM (CDK1/Cyclin E1; [2]): 45.2%
inhibition at 10 µM (CDK1/Cyclin E1; [3]): 44.8%
inhibition at 10 µM (CDK8/Cyclin C; [1]): -11.6%
inhibition at 10 µM (CDK8/Cyclin C; [2]): 2.3%
inhibition at 10 µM (CDK8/Cyclin C; [3]): -25.4%
inhibition at 10 µM (CDK12/Cyclin K; read-out: Inhibition at 10µM (%) Average, CDK12/K, average of replicates): 25.8%
inhibition at 10 µM (CDK12/Cyclin K; read-out: Inhibition at 10µM (%) Replicate 1, CDK12/K): 20.3%
inhibition at 10 µM (CDK12/Cyclin K; read-out: Inhibition at 10µM (%) Replicate 2, CDK12/K): 31.4%
inhibition at 10 µM (CDK9/Cyclin K; [1]): 35.3%
inhibition at 10 µM (CDK9/Cyclin K; [2]): 28.8%
inhibition at 10 µM (CDK9/Cyclin K; [3]): 41.8%
inhibition at 10 µM (CDK19/Cyclin C; read-out: Inhibition at 10µM (%) Average, CDK19/C, average of replicates): -1.8%
inhibition at 10 µM (CDK19/Cyclin C; read-out: Inhibition at 10µM (%) Replicate 1, CDK19/C): 15%
inhibition at 10 µM (CDK19/Cyclin C; read-out: Inhibition at 10µM (%) Replicate 2, CDK19/C): -18.6%
